Source: publication PMC9722314, “Solubility Enhancement of a Poorly Water-Soluble Drug Using Hydrotropy and Mixed Hydrotropy-Based Solid Dispersion Techniques” (Advances in Pharmacological and Pharmaceutical Sciences, 2022)
Values joined by “and” are separate entries in the source; they are usually repeats but may differ in a detail not shown here. Equal entries are not always repeated.

Key:
[1] = cited from earlier work
[2] = parameters: method as in earlier work; details: sodium salicylate (2.0 M); ref 18 (Nainwal et al.); cited from earlier work
[3] = In vitro dissolution rate study, USP apparatus I (basket); type: physicochemical; details: within 45 min; 900 ml 0.05 M citrate buffer pH 6.6, 50 rpm, 37°C, 10 mg drug; listed as pure drug
Protocol: In vitro dissolution of rosuvastatin calcium solid dispersions, physical mixtures, and the pure drug was investigated using a basket stirrer in a USP dissolution apparatus (Industrial Lab) (USP apparatus I method). The dissolution medium was 900 ml of 0.05 M citrate buffer at pH 6.6, which is recommended by the US Food and Drug Administration for dissolution studies with rosuvastatin calcium. The rotation speed was 50 rpm, and the temperature was kept constant at 37 ± 0.5°C during the experiment. Each test employed solid dispersions containing 10 mg of rosuvastatin calcium. At known intervals of time of 5, 10, 15, 20, 25, 30, and 45 minutes, 5 ml of the dissolution medium sample was removed and refilled with the same quantity of medium to maintain a consistent volume throughout the experiment. The withdrawn material was filtered using a 0.45 μm syringe filter. After dilution with a 0.05 M citrate buffer solution, the samples were spectrophotometrically analyzed by detecting the absorbance at 241 nm. […] The dissolution studies of each formulation were conducted in triplicate.

[4] = due to limited water solubility; cited from earlier work
[5] = Equilibrium solubility of rosuvastatin calcium in mixed hydrotropic solutions; type: physicochemical; details: total 40%; for solubility at 24 h: mixed hydrotropic agent solution in distilled water; for solubility at 24 h / solubility: 37 °C, aqueous with cosolvent or surfactant or cyclodextrin, thermodynamic from solid; for solubility: mixed hydrotropic solution in distilled water
Protocol: In order to create a clear solution, two to three hydrotropic agents were mixed and dissolved in distilled water. Next, an excessive amount of calcium rosuvastatin was added, and the mixture was shaken until no more rosuvastatin was dissolved. The solutions are mechanically shaken on a mechanical isothermal bath shaker at 37 ± 0.5°C for 24 hours, followed by another 24 hours of equilibration. A grade of 0.45 μm syringe filter was used to filter the resultant solution. Using a UV-visibledouble-beam spectrophotometer, a portion of the material was diluted with distilled water and analyzed at 242 nm. The equilibrium solubility studies were conducted in triplicate. To obtain optimal solubility of rosuvastatin calcium in water, a ratio of three hydrotropic agents was adjusted.

[6] = Saturated solubility study in distilled water (pure drug, solid dispersions, physical mixture); type: physicochemical; details: 37 °C, thermodynamic from solid, 37 ± 0.5°C, 24 h shaking + 24 h equilibration
Protocol: To assess the solubility of pure rosuvastatin calcium, produced solid dispersions, and physical mixtures in distilled water, saturation solubility tests were performed. The saturation solubility tests were performed in triplicate according to Higuchi and Connors' technique. The excess of solid dispersions and physical mixtures were added to vials containing 10 ml of distilled water. The vials were shaken for 24 hours on a mechanical isothermal bath shaker at 37 ± 0.5°C and then left alone for another 24 hours to equilibrate. A syringe filter with a grade of 0.45 μm was used to filter the drug-containing solution. An aliquot of the filtrate was suitably diluted with the corresponding reagent, and the dilution was analyzed on a UV-visibledouble-beam spectrophotometer [18].

[7] = Equilibrium solubility of rosuvastatin calcium in single hydrotropic agent solutions; type: physicochemical; details: for solubility thermodynamic at 24 h: aqueous hydrotropic agent solution, 37 °C, aqueous with cosolvent or surfactant or cyclodextrin, thermodynamic from solid
Protocol: At first, equilibrium solubility investigations were conducted with a variety of hydrotropic agents. […] In a 10 ml vial, 5 ml of a specific hydrotropic agent solution was accurately measured, and an excess of rosuvastatin calcium was added and physically agitated for 30 minutes until a saturated solution was generated. To achieve equilibrium solubility, the vial was shaken on a mechanical isothermal bath shaker at 37 ± 0.5°C for 24 hours, and the solution was allowed to equilibrate for another 24 hours. The resulting solution was filtered with a grade of 0.45 μm syringe filter. A portion of the sample was diluted with distilled water and examined at 242 nm using a UV-visibledouble-beam spectrophotometer against the respective solvent as a blank. The equilibrium solubility study was conducted in triplicate. The following formula was used for the calculation of solubility enhancement ratios:(1) Enhancement ratio=Solubility of drug in hydrotropic solution/Solubility of drug in water. Equation (1) is used for the calculation of the solubility enhancement ratio.

## CC(C)c1nc(N(C)S(C)(=O)=O)nc(-c2ccc(F)cc2)c1/C=C/[C@@H](O)C[C@@H](O)CC(=O)O [rosuvastatin calcium, Rosuvastatin calcium]
[1]
  t1/2: 19 h
[1]; oral
  Oral bioavailability: roughly 20%
[2]
  Increase in solubility: 55 folds
[3]
  In vitro drug release: 40.73 ± 4.44% and 40.73%
[4]
  Biopharmaceutics classification system (BCS) class: class II
[5]; SS : C 20 : 20 % w/v, vs water
  Solubility enhancement ratio: 76.015
[5]; SS : M 20 : 20 % w/v, vs water
  Solubility enhancement ratio: 128.66
[5]; SS : SB 5 : 35 % w/v, vs water
  Solubility enhancement ratio: 189.78
[5]; SS : SB 10 : 30 % w/v, vs water
  Solubility enhancement ratio: 120.01
[5]; SS : SB 15 : 25 % w/v, vs water
  Solubility enhancement ratio: 389.37
[5]; SS : SB 20 : 20 % w/v, vs water
  Solubility enhancement ratio: 421.02
[5]; SS : SB : C, each 13.333 % w/v, vs water
  Solubility enhancement ratio: 112.005
[5]; SS : SB : M, each 13.333 % w/v, vs water
  Solubility enhancement ratio: 172.722
[5]; SS : SB : U 10 : 15 : 15 % w/v, vs water
  Solubility enhancement ratio: 200.265
[5]; SS : SB : U 20 : 05 : 15 % w/v, vs water
  Solubility enhancement ratio: 210.314
[5]; SS : SB : U 20 : 10 : 10 % w/v, vs water
  Solubility enhancement ratio: 235.414
[5]; SS : SB : U 20 : 15 : 05 % w/v, vs water
  Solubility enhancement ratio: 301.328
[5]; SS : SB : U, each 13.333 % w/v, vs distilled water
  Solubility enhancement ratio: 449.137
[5]; SS : SB : U, each 13.333 % w/v, vs distilled water, listed as rosuvastatin
  Solubility enhancement ratio: 449
[5]; SS : U 20 : 20 % w/v, vs water
  Solubility enhancement ratio: 181.65
[5]; SS : C 20 : 20 % w/v
  solubility at 24 h: 32.5 ± 0.52 mg/mL
[5]; SS : M 20 : 20 % w/v
  solubility at 24 h: 55 ± 2.72 mg/mL
[5]; SS : SB 5 : 35 % w/v
  solubility at 24 h: 81.1 ± 1.54 mg/mL
[5]; SS : SB 10 : 30 % w/v
  solubility at 24 h: 51.3 ± 3.38 mg/mL
[5]; SS : SB 20 : 20 % w/v
  solubility at 24 h: 180 ± 40.1 mg/mL
[5]; SS : SB : U, each 13.333 % w/v
  solubility at 24 h: 192 ± 38.6 mg/mL
  solubility: 192 ± 38.6 mg/mL
[5]; SS : U 20 : 20 % w/v
  solubility at 24 h: 77.6 ± 2.31 mg/mL
[5]; SS : SB 15 : 25 % w/v
  solubility: 166 ± 7.24 mg/mL
[5]; SS : SB : C, each 13.333 % w/v
  solubility: 47.9 ± 1.43 mg/mL
[5]; SS : SB : M, each 13.333 % w/v
  solubility: 73.8 ± 1.49 mg/mL
[5]; SS : SB : U 10 : 15 : 15 % w/v
  solubility: 85.6 ± 1.74 mg/mL
[5]; SS : SB : U 20 : 05 : 15 % w/v
  solubility: 89.9 ± 5.18 mg/mL
[5]; SS : SB : U 20 : 10 : 10 % w/v
  solubility: 101 ± 12.7 mg/mL
[5]; SS : SB : U 20 : 15 : 05 % w/v
  solubility: 129 ± 4.02 mg/mL
[6]
  solubility: 0.427 ± 0.005 mg/mL
[7]; citric acid 10% w/v aqueous solution
  solubility thermodynamic at 24 h: 0.45 ± 0.003 mg/mL
[7]; citric acid 20% w/v aqueous solution
  solubility thermodynamic at 24 h: 0.75 ± 0.05 mg/mL
[7]; citric acid 30% w/v aqueous solution
  solubility thermodynamic at 24 h: 0.78 ± 0.1 mg/mL
[7]; citric acid 40% w/v aqueous solution
  solubility thermodynamic at 24 h: 0.93 ± 0.17 mg/mL
[7]; mannitol 10% w/v aqueous solution
  solubility thermodynamic at 24 h: 0.49 ± 0.13 mg/mL
[7]; mannitol 20% w/v aqueous solution
  solubility thermodynamic at 24 h: 0.599 ± 0.09 mg/mL
[7]; mannitol 30% w/v aqueous solution
  solubility thermodynamic at 24 h: 0.66 ± 0.1 mg/mL
[7]; mannitol 40% w/v aqueous solution
  solubility thermodynamic at 24 h: 0.89 ± 0.028 mg/mL
[7]; sodium benzoate 10% w/v aqueous solution
  solubility thermodynamic at 24 h: 22.9 ± 1.46 mg/mL
[7]; sodium benzoate 20% w/v aqueous solution
  solubility thermodynamic at 24 h: 39 ± 4.53 mg/mL
[7]; sodium benzoate 30% w/v aqueous solution
  solubility thermodynamic at 24 h: 103 ± 14.1 mg/mL
[7]; sodium benzoate 40% w/v aqueous solution
  solubility thermodynamic at 24 h: 119 ± 13.8 mg/mL
[7]; sodium salicylate 10% w/v aqueous solution
  solubility thermodynamic at 24 h: 27 ± 1.04 mg/mL
[7]; sodium salicylate 20% w/v aqueous solution
  solubility thermodynamic at 24 h: 49.9 ± 2.58 mg/mL
[7]; sodium salicylate 30% w/v aqueous solution
  solubility thermodynamic at 24 h: 97.3 ± 4.13 mg/mL
[7]; sodium salicylate 40% w/v aqueous solution
  solubility thermodynamic at 24 h: 125 ± 1.8 mg/mL
[7]; urea 10% w/v aqueous solution
  solubility thermodynamic at 24 h: 0.85 ± 0.07 mg/mL
[7]; urea 20% w/v aqueous solution
  solubility thermodynamic at 24 h: 1.06 ± 0.08 mg/mL
[7]; urea 30% w/v aqueous solution
  solubility thermodynamic at 24 h: 1.13 ± 0.16 mg/mL
[7]; urea 40% w/v aqueous solution
  solubility thermodynamic at 24 h: 1.36 ± 0.1 mg/mL
[7]; citric acid solution vs water (fits the 40% w/v value)
  Solubility enhancement ratio: 2.192
[7]; mannitol solution vs water (fits the 40% w/v value)
  Solubility enhancement ratio: 2.085
[7]; sodium benzoate solution vs water (fits the 40% w/v value)
  Solubility enhancement ratio: 277.556
[7]; sodium salicylate solution (40%) vs water, listed as Rosuvastatin calcium
  Solubility enhancement ratio: 292.961
[7]; sodium salicylate solution (40%) vs water, listed as rosuvastatin
  Solubility enhancement ratio: 292.9
[7]; urea solution vs water (fits the 40% w/v value)
  Solubility enhancement ratio: 3.198
